Key:
Experiment in all cases: combination Emax (second highest fraction inhibited in the dose matrix, 72 h); higher = more inhibition; extreme values may be limits of the assay
[1] = system: Mo-T (Other Blood Carcinomas)
Summary of the method: (§1)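 Cell lines in DMEM/F12 or RPMI with 10% FBS were plated in 1536-well plates, held 24 hours at 37°C, 5% CO2, then given two-drug dose matrices for 72 hours (DMSO typically 0.2%). Viability was read by CellTiter-Glo 2.0 luminescence and scaled as inhibition from 0 (vehicle wells) to 1 (blank wells). Combination Emax is the second-highest inhibition in the matrix; Bliss excess is observed combination effect minus expected EA + EB − EA·EB, EA and EB being single-agent effects.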

SK-N-AS (Neuroblastoma) = system: SK-N-AS (Neuroblastoma)
Summary of the method: as §1

EW-1 (Ewing's Sarcoma) = system: EW-1 (Ewing's Sarcoma)
Summary of the method: as §1

[2] = system: HAL-01 (B-Lymphoblastic Leukemia)
Summary of the method: as §1

SMILES	combination Emax [1]	combination Emax (SK-N-AS (Neuroblastoma))	combination Emax (EW-1 (Ewing's Sarcoma))	combination Emax [2]
COc1cccc(OCCCN)c1-c1cc(Nc2cnc(C#N)cn2)n[nH]1 [Prexasertib] + CN(C)CCCOc1ccc(-c2ccc3ncc4c(c3c2)n(C2CCOCC2)c(=O)n4C)cn1 [AZD0156] (first compound max 1 µM, 7x7, partner max 1 µM)	0.392	1	0.958	1
COc1nnc2ccc(N3CCC(c4ccc(OCCN5CCN(C)C(=O)[C@H]5C)cc4)CC3)nn12 [AZD5153] + CC1(C)CCC(CN2CCN(c3ccc(C(=O)NS(=O)(=O)c4ccc(NCC5CCOCC5)c([N+](=O)[O-])c4)c(Oc4cnc5[nH]ccc5c4)c3)CC2)=C(c2ccc(Cl)cc2)C1 [Venetoclax] (first compound max 1 µM, 7x7, partner max 1 µM)	0.611	0.415	0.56	0.979
Cn1cnc2c(F)c(Nc3ccc(Br)cc3Cl)c(C(=O)NOCCO)cc21 [Selumetinib] + C=CCn1c(=O)c2cnc(Nc3ccc(N4CCN(C)CC4)cc3)nc2n1-c1cccc(C(C)(C)O)n1 [AZD1775] (first compound max 10 µM, partner max 1 µM)	0.482	0.817	0.883	0.876
Cc1c2c(nn1C)CSCc1cc(n(C)n1)CSc1cc(c3ccccc3c1)OCCCc1c(C(=O)O)n(C)c3c-2c(Cl)ccc13 [AZD5991] + C[C@@H]1COCCN1C2=NC(=NC(=C2)C3(CC3)[S@](=N)(=O)C)C4=C5C=CNC5=NC=C4 [AZD6738] (first compound max 1 µM, 7x7, partner max 10 µM)	0.483	0.966	0.965	0.987
NC1(C(=O)N[C@@H](CCO)c2ccc(Cl)cc2)CCN(c2ncnc3[nH]ccc23)CC1 [Capivasertib] + C[C@@H]1COCCN1C2=NC(=NC(=C2)C3(CC3)[S@](=N)(=O)C)C4=C5C=CNC5=NC=C4 [AZD6738] (first compound max 10 µM, 7x7, partner max 10 µM)	0.417	0.738	0.938	0.97
Cn1cnc2c(F)c(Nc3ccc(Br)cc3Cl)c(C(=O)NOCCO)cc21 [Selumetinib] + CC(C)n1c(=O)n(C)c2cnc3cc(F)c(-c4ccc(OCCCN5CCCCC5)nc4)cc3c21 [AZD1390] (first compound max 10 µM, 7x7, partner max 0.3 µM)	0.246	0.422	0.159	0.48
COc1cccc(OCCCN)c1-c1cc(Nc2cnc(C#N)cn2)n[nH]1 [Prexasertib] + C[C@@H]1COCCN1C2=NC(=NC(=C2)C3(CC3)[S@](=N)(=O)C)C4=C5C=CNC5=NC=C4 [AZD6738] (first compound max 1 µM, 7x7, partner max 10 µM)	0.571	0.976	0.96	1
COc1nnc2ccc(N3CCC(c4ccc(OCCN5CCN(C)C(=O)[C@H]5C)cc4)CC3)nn12 [AZD5153] + CCN(CCO)CCCOc1ccc2c(Nc3cc(CC(=O)Nc4cccc(F)c4)[nH]n3)ncnc2c1 [AZD2811] (first compound max 1 µM, 7x7, partner max 1 µM)	0.599	0.447	0.64	0.752
CCN(CCO)CCCOc1ccc2c(Nc3cc(CC(=O)Nc4cccc(F)c4)[nH]n3)ncnc2c1 [AZD2811] + O=C(c1cc(Cc2n[nH]c(=O)c3ccccc23)ccc1F)N1CCN(C(=O)C2CC2)CC1 [Olaparib] (first compound max 1 µM, 7x7, partner max 10 µM)	0.369	0.249	0.709	0.37
CCN(CCO)CCCOc1ccc2c(Nc3cc(CC(=O)Nc4cccc(F)c4)[nH]n3)ncnc2c1 [AZD2811] + C[C@@H]1COCCN1C2=NC(=NC(=C2)C3(CC3)[S@](=N)(=O)C)C4=C5C=CNC5=NC=C4 [AZD6738] (first compound max 1 µM, 7x7, partner max 10 µM)	0.556	0.784	0.852	0.99
